Reference: US10900063B2, “Measurement of Lp-PLA2 activity” (ASAHI KASEI PHARMA CORPORATION, priority 2016, dated 2021)
Positions count from the first letter of the chain named. Names may count otherwise.

T1: Lp-PLA2 (Homo sapiens, UniProt Q13093)
T1 construct: Individual serum No. 16, individual serum No. 78; from tissue; host or cells: serum and plasma (individual sera, pooled sera, heparin and citrated pooled plasma)
T1 sequence (Q13093 22-441): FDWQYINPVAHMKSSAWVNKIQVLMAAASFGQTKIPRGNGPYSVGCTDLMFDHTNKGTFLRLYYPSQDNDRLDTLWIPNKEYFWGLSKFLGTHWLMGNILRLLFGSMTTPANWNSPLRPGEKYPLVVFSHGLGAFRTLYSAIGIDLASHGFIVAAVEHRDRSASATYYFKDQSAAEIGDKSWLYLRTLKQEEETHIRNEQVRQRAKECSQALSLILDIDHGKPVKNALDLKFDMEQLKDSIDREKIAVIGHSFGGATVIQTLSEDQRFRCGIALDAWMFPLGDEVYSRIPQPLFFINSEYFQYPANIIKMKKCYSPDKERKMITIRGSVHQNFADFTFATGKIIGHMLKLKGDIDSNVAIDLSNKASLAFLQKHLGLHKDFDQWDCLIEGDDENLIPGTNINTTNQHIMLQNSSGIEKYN

T2: rLp-PLA2 (Homo sapiens, UniProt Q13093, I42M)
T2 construct: histidine tag (from vector pET-19b) (N); made in house; host or cells: E. coli BL21(DE3), plasmid Lp-PLA2/pET-19b
T2 sequence (Q13093 42-441 I42M): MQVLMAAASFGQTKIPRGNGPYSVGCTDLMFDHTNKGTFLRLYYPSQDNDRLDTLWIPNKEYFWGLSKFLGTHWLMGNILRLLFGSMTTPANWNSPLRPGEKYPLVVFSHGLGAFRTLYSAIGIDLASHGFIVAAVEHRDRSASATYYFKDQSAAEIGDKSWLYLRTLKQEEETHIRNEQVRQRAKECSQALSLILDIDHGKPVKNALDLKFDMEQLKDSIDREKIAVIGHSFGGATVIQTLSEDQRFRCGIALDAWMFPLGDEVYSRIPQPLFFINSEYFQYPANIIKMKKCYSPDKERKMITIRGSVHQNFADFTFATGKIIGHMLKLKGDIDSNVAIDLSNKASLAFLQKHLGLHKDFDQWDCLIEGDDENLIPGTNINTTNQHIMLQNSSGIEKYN

B1: M45G: lyso-PAF-PLD mutant, G substituted for M in the 45th position of SEQ ID NO: 9 (protein)
chain: MTTRTTDNPWLDARVLNMAHAGGENEAPANTLYAFKRAVKLGANGLELDVQSTKDDQLVVIHNATVDQTTDGTGKVRDLTFEQVHELDAAYNFIPGRHAVPGEPPESYPLRGVRTGEKKPPPGYQPSDFAIPKLADVLEAFPRTPINIEIKGTSDADIPSFLHNAKLLARLLKKTGRTDFIVTSFNDLAVAKFHLLAPDIPIAPGMAGLAAYFLLGVKPMHGTVALQIPVRYQGLEIATPEFIRRAHADGYAVHVWFSGTAPDDEATYNRIIDSCADGLMPAYPALLERILDERGIERPGRPGVDPCG
B2: M45A: lyso-PAF-PLD mutant, A substituted for M in the 45th position of SEQ ID NO: 9 (protein)
chain: B1 chain with G45A

Assays:
Format in all cases: biochemical
Lp-PLA2 = target: T1, Lp-PLA2; test: Lp-PLA2 activity measurement in serum/plasma with reagents of the invention (PAF substrate, lyso-PAF-PLD, choline oxidase, peroxidase colorimetry); details: Example 9; for Lp-PLA2 activity value / absorbance change per minute (sensitivity): 10 mM substrate in R2; for Relative activity: PAF(C16) = 100
Method: Unless otherwise specified, in these examples the Method 1 described under 1) below is used for calculating Lp-PLA2 activity values. In these examples, (nmol/min/mL) is sometimes expressed as (U/L).
This is calculated by the following formula based on the absorbance change per minute (ΔmAbs/min) as calculated from absorbance at the measuring points and the millimolar extinction coefficient (ε=36) of TODB at 546 nm.
(§1) 4 μL of the sample was mixed with 160 μL of the R1 reagent, and incubated for 5 minutes at 37° C. (measuring points 1 to 16), after which 40 μL of the R2 reagent was added to initiate a reaction (measuring point 17). The absorbance of water (blank) at the same measuring points was subtracted from the absorbance of the sample about 3.6 to 4.5 minutes after the reaction was initiated by addition of the R2 reagent (measuring points 30 to 33) to calculate the absorbance change per minute (ΔmAbs/min), and the Lp-PLA2 activity value (nmol/min/mL) was calculated according to the previous formula.
[…] was mixed with 150 μL of the R1 reagent, and incubated for 5 minutes at 37° C. (measuring points 1 to 15), after which 100 μL of the R2 reagent was added to initiate a reaction (measuring point 16). The absorbance of water (blank) at the same measuring points was subtracted from the absorbance of the sample about 2 to 3 minutes after the reaction was initiated by addition of the R2 reagent (measuring points 23 to 26) to calculate the absorbance change per minute (ΔmAbs/min), and the Lp-PLA2 activity value (nmol/min/mL) was calculated according to the previous formula. The values for absorbance change per minute (sensitivity) (ΔmAbs/min) and the Lp-PLA2 activity values (nmol/min/mL) at each pH are shown in Tables 1 and 2.
(§2) 5 μL of sample was mixed with 150 μL of the R1 reagent, and incubated for 5 minutes at 37° C. (measuring points 1 to 15), after which 100 μL of the R2 reagent was added to initiate a reaction (measuring point 16). The absorbance of water (blank) at the same measuring points was subtracted from the absorbance of the sample about 3.5 to 4.5 minutes after the reaction was initiated by addition of the R2 reagent (measuring points 27 to 30) to calculate the absorbance change per minute (ΔmAbs/min), and the Lp-PLA2 activity value (nmol/min/mL) was calculated according to the previous formula. The values for absorbance change per minute (sensitivity) (ΔmAbs/min) and Lp-PLA2 activity (nmol/min/mL) and the relative activity for each substrate given 100 as the Lp-PLA2 activity value for PAF(C16) are shown in Tables 19 to 24.
Each sample was mixed with 160 μL of the R1 reagent, and incubated for 5 minutes at 37° C., (measuring points 1 to 15), after which 40 μL of the R2 reagent was added to initiate the reaction (measuring point 16). The absorbance of water (blank) at the same measuring points was subtracted from the absorbance of the sample about 3.5 to 4.5 minutes after the reaction was initiated by addition of the R2 reagent (measuring points 27 to 30) to calculate the absorbance change per minute (ΔmAbs/min), and the Lp-PLA2 activity value (nmol/min/mL) was calculated according to the previous formula. […]
as §1, with “(measuring” for “4 μL of the sample was mixed with 160 μL of the R1 reagent, and incubated for 5 minutes at 37° C. (measuring”, “100” for “40”, “3.5” for “3.6”, “29” for “30”, “32)” for “33)”

rLp-PLA2 = target: T2, rLp-PLA2; test: Lp-PLA2 activity measurement with reagents of the invention, recombinant Lp-PLA2 as sample; details: Example 9, sample rLp-PLA2 (0.017 mg/mL); for Lp-PLA2 activity value / absorbance change per minute (sensitivity): 10 mM substrate in R2; for Relative activity: PAF(C16) = 100
Method: The recombinant Lp-PLA2 (rLp-PLA2) used in these examples was prepared in accordance with Reference Examples 4 to 6 based on the information disclosed in J. Biol. Chem., Oct. 27, 1995, No. 43, Vol. 270, pp. 25481-25487.
A gene optimized for E. coli (matched to E. coli codon usage) was synthesized (GenScript (NJ, USA)) based on the sequence data for a human Lp-PLA2 gene. Using the synthesized DNA as a template, a roughly 1200 bp PCR product was obtained by PCR using KOD FX (Toyobo Co., Ltd.) using as the sense primer the nucleotide sequence of SEQ ID NO: 5 in which the 42nd isoleucine was changed to the sequence of the initial methionine, with the nucleotide sequence of SEQ ID NO: 6 as the antisense primer. The resulting PCR product was digested with NdeI (Takara Bio Inc.) and BamHI (Takara Bio Inc.), and inserted into the NdeI-BamHI site of the expression vector pET-19b (Novagen) to obtain an Lp-PLA2/pET-19b expression plasmid. This expression plasmid was transformed into One shot BL21(DE3) Chemically Competent E. coli, to obtain a transformant called Lp-PLA2/pET-19b/BL21(DE3) comprising a recombinant vector containing a polynucleotide consisting of a nucleotide sequence encoding Lp-PLA2 with a histidine tag from the vector added at the N-terminus.
as §2

[1] = PLD activity (kcat/Km) of lyso-PAF-PLD and site-specific mutants against lyso-PAF; details: substrate lyso-PAF 0 to 5 mM, pH 7.5, 37° C.
Method: As a result, the pre-mutation PLD activity was 1385 (s^−1 mM^−1), but the mutant having G substituted for the M in the 45th position of SEQ ID NO: 9 (called M45G) and the similarly-named mutants M45A, M45L and M45D had PLD activities of 3059, 11411, 3284 and 4557 (s^−1mM^−1), respectively.
As a result, the PLD activity was 1385 (s^−1mM^−1) before the mutation, but the mutant having G substituted for F in the 257th position of […] (called F257G) and the similarly-named mutants F257E, F257R, F257K and F257W had PLD activities 1200, 1000, 1080, 1020 and 1320, respectively.
The PLD activity of the lyso-PAF-PLD mutants obtained by site-specific mutations was measured as follows. 1.211 g of Tris, 14.7 mg of calcium chloride dihydrate (Wako Pure Chemical Industries, Ltd.), 20 mL of lyso-PAF solution and 2 mL of 1% TODB solution were dissolved in 60 mL of purified water, the pH was adjusted to 7.5 (25° C.) with 1 N HCl, 4 mL of 100 U/mL choline oxidase, 4 mL of 100 U/mL peroxidase solution and 2 mL of 1% 4-AA solution were added and dissolved, and the total was brought to 100 mL with purified water to obtain a PLD activity measurement reagent for lyso-PAF (reaction reagent mixture). The lyso-PAF solution was adjusted so that the lyso-PAF concentration in the reaction reagent mixture was 0 to 5 mM. 3 mL of the reaction reagent mixture was pre-heated for 5 minutes at 37° C., and mixed with 50 μL of a solution of the lyso-PAF-PLD mutant with the introduced site-specific mutation diluted appropriately with 10 mM Tris-HCl (pH 7.5) to initiate a reaction, and the change in absorbance at 546 nm was measured for 1 minute between 8 and 9 minutes after initiation of the reaction. The activity value (μmole/min) was calculated given 36 (cm^2/μmole) as the millimolar extinction coefficient of the quinoneimine dye at 546 nm. The protein content (mg/mL) was calculated by the Bradford method using bovine serum albumin as the standard. Km and kcat were calculated by the Michaelis-Menten formula in accordance with the methods described in the aforementioned Theory and Practice on Enzymes and other Proteins [Tanpakushitsu/Kouso no kiso jikkenhou] and in Voet's Basic Biochemistry (Fourth Ed.) and the like. For purposes of calculation, the molecular weight of the enzyme was given as 33583.

| Molecule | Lp-PLA2 activity value (Lp-PLA2; sample Citrated pooled plasma) [nmol/min/mL] | absorbance change per minute (sensitivity) (Lp-PLA2; sample Citrated pooled plasma) | Lp-PLA2 activity value (Lp-PLA2; sample Heparin pooled plasma) [nmol/min/mL] | absorbance change per minute (sensitivity) (Lp-PLA2; sample Heparin pooled plasma) | Lp-PLA2 activity value (Lp-PLA2; sample Individual serum 16) [nmol/min/mL] | absorbance change per minute (sensitivity) (Lp-PLA2; sample Individual serum 16) | Lp-PLA2 activity value (Lp-PLA2; sample Pooled serum C) [nmol/min/mL] | absorbance change per minute (sensitivity) (Lp-PLA2; sample Pooled serum C) | Lp-PLA2 activity value (Lp-PLA2; sample Pooled serum J042) [nmol/min/mL] | absorbance change per minute (sensitivity) (Lp-PLA2; sample Pooled serum J042) | Relative activity (Lp-PLA2; sample Citrated pooled plasma) [%] | Relative activity (Lp-PLA2; sample Heparin pooled plasma) [%] | Relative activity (Lp-PLA2; sample Individual serum 16) [%] | Relative activity (Lp-PLA2; sample Pooled serum C) [%] | Relative activity (Lp-PLA2; sample Pooled serum J042) [%] | Lp-PLA2 activity value (rLp-PLA2) [nmol/min/mL] | absorbance change per minute (sensitivity) (rLp-PLA2) | Relative activity (rLp-PLA2) [%] | Km [1] [µM] | kcat [1] [s⁻¹] |
| --- | --- | --- | --- | --- | --- | --- | --- | --- | --- | --- | --- | --- | --- | --- | --- | --- | --- | --- | --- | --- |
| CCCCCCCCCCCCCCCCOC[C@H](COP(=O)([O-])OCC[N+](C)(C)C)OC(C)=O [PAF(C16), 1-O-Hexadecyl-2-acetyl-sn-glycero-3-phosphocholine] | 33.3 | 23.5 ΔmAbs/min | 44.3 | 31.3 ΔmAbs/min | 94.8 | 66.9 ΔmAbs/min | 40.8 | 28.8 ΔmAbs/min | 40.8 | 28.8 ΔmAbs/min | 100 | 100 | 100 | 100 | 100 | 132.3 | 93.4 ΔmAbs/min | 100 | – | – |
| CCCCCCCCCCCCCCCCCCOC[C@H](COP(=O)([O-])OCC[N+](C)(C)C)OC(C)=O [PAF(C18), 1-O-Octadecyl-2-acetyl-sn-glycero-3-phosphocholine] | 27.8 | 19.6 ΔmAbs/min | 38.7 | 27.3 ΔmAbs/min | 79.3 | 56.0 ΔmAbs/min | 35.6 | 25.1 ΔmAbs/min | 35.4 | 25.0 ΔmAbs/min | 83 | 87 | 84 | 87 | 87 | 74.1 | 52.3 ΔmAbs/min | 56 | – | – |
| B1 | – | – | – | – | – | – | – | – | – | – | – | – | – | – | – | – | – | – | 27 | 82 |
| B2 | – | – | – | – | – | – | – | – | – | – | – | – | – | – | – | – | – | – | 12 | 136 |
